Laboratory results published in ChEMBL document CHEMBL1201862, “PubChem BioAssay data set” (2004).
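The compound was tested at five concentrations on cells cultured in 96-well plates, with a 48-hour exposure period. GI50 is the concentration that inhibits growth by half.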 The source made the active and inactive calls. Cut-off read from the data, not from the text of the source: active = GI50 up to about 1.1 µM and inactive = higher.

Experiments:
Test in all cases: inhibition of tumour cell growth, NCI panel, 48 h
K562 = test system: K562
TK-10 = test system: TK-10
NCI-H23 = test system: NCI-H23
SNB-75 = test system: SNB-75
NCI-H226 = test system: NCI-H226
HT-29 = test system: HT-29
OVCAR-3 = test system: OVCAR-3
MCF7 = test system: MCF7
SF-539 = test system: SF-539
OVCAR-8 = test system: OVCAR-8
UO-31 = test system: UO-31
OVCAR-4 = test system: OVCAR-4
OVCAR-5 = test system: OVCAR-5
KM12 = test system: KM12
RXF 393 = test system: RXF 393
M14 = test system: M14
SF-295 = test system: SF-295
SK-OV-3 = test system: SK-OV-3
EKVX = test system: EKVX
SK-MEL-28 = test system: SK-MEL-28

Measured: GI50

CCOC(=O)c1cc2c([N+](=O)[O-])c(NC(C)=O)ccc2s1
inactive: K562 53.6 µM | TK-10 > 100 µM | NCI-H23 71.9 µM | SNB-75 19.3 µM | NCI-H226 13.3 µM | HT-29 89.7 µM | OVCAR-3 38.4 µM | MCF7 63 µM | SF-539 > 100 µM | OVCAR-8 > 100 µM | UO-31 47.3 µM | OVCAR-4 68.4 µM | OVCAR-5 > 100 µM | KM12 74.8 µM | RXF 393 20.2 µM | M14 > 100 µM | SF-295 69.3 µM | SK-OV-3 > 100 µM | EKVX 12.6 µM | SK-MEL-28 > 100 µM

CSCCC(N)P(C)(=O)O (stereo not given)
inactive: K562 > 100 µM | TK-10 > 100 µM | NCI-H23 > 100 µM | SNB-75 > 100 µM | NCI-H226 > 100 µM | HT-29 > 100 µM | OVCAR-3 > 100 µM | MCF7 > 100 µM | SF-539 > 100 µM | OVCAR-8 > 100 µM | UO-31 > 100 µM | OVCAR-4 > 100 µM | OVCAR-5 > 100 µM | KM12 > 100 µM | RXF 393 > 100 µM | M14 > 100 µM | SF-295 > 100 µM | SK-OV-3 > 100 µM | EKVX > 100 µM | SK-MEL-28 > 100 µM

c1cc2nnc1SCCCSc1ccc(nn1)SCCCS2
inactive: K562 > 27.9 µM | TK-10 35.5 µM | NCI-H23 34.8 µM | SNB-75 25.1 µM | NCI-H226 24.7 µM | HT-29 > 30.2 µM | OVCAR-3 > 43.2 µM | MCF7 32.4 µM | SF-539 23.5 µM | OVCAR-8 > 39.6 µM | UO-31 > 100 µM | OVCAR-4 16.1 µM | OVCAR-5 31.3 µM | KM12 > 35.6 µM | RXF 393 12.9 µM | M14 > 25.9 µM | SF-295 20.5 µM | SK-OV-3 24.7 µM | EKVX > 100 µM | SK-MEL-28 > 46.5 µM

CC(Oc1ccccc1Cl)C(=O)NN1C(=O)CSC1c1ccc(Cl)cc1 (stereo not given)
inactive: K562 6.73 µM | TK-10 25.8 µM | NCI-H23 19.3 µM | SNB-75 22.9 µM | NCI-H226 18.2 µM | HT-29 19.8 µM | OVCAR-3 23.3 µM | MCF7 18.1 µM | SF-539 24.8 µM | OVCAR-8 23.4 µM | UO-31 35.1 µM | OVCAR-4 13.7 µM | OVCAR-5 22.8 µM | KM12 18.1 µM | RXF 393 17.3 µM | M14 18.4 µM | SF-295 18.5 µM | SK-OV-3 18.8 µM | EKVX 26.8 µM | SK-MEL-28 23 µM

C=CCN1C(=O)/C(=C/c2ccc(OC)cc2)NC1=S
inactive: K562 38.5 µM | TK-10 > 100 µM | NCI-H23 58.3 µM | SNB-75 > 100 µM | NCI-H226 37.9 µM | HT-29 57.9 µM | OVCAR-3 > 100 µM | MCF7 40.9 µM | SF-539 > 100 µM | OVCAR-8 25.7 µM | UO-31 61.4 µM | OVCAR-4 54.5 µM | OVCAR-5 > 100 µM | KM12 97.7 µM | RXF 393 37.2 µM | M14 53.3 µM | SF-295 54.2 µM | SK-OV-3 > 100 µM | EKVX 18.3 µM | SK-MEL-28 > 100 µM

O=CN1CCC23CC(O)CCC2C1Cc1cc(Oc2nnnn2-c2ccccc2)cc(O)c13 (stereo not given)
inactive: K562 > 100 µM | TK-10 > 100 µM | NCI-H23 > 100 µM | SNB-75 > 100 µM | NCI-H226 > 100 µM | HT-29 59.4 µM | OVCAR-3 > 100 µM | MCF7 54 µM | SF-539 > 100 µM | OVCAR-8 > 100 µM | UO-31 85.3 µM | OVCAR-4 86.1 µM | OVCAR-5 > 100 µM | KM12 57.9 µM | RXF 393 > 100 µM | M14 > 100 µM | SF-295 > 100 µM | SK-OV-3 > 100 µM | EKVX > 100 µM | SK-MEL-28 > 100 µM

Cc1nc2cccc(F)c2c(=O)n1C1CCCCNC1=O (stereo not given)
inactive: K562 > 10 µM | TK-10 > 10 µM | NCI-H23 > 10 µM | SNB-75 > 10 µM | NCI-H226 > 10 µM | HT-29 > 10 µM | OVCAR-3 > 10 µM | MCF7 > 10 µM | SF-539 > 10 µM | OVCAR-8 > 10 µM | UO-31 > 10 µM | OVCAR-4 > 10 µM | OVCAR-5 > 10 µM | KM12 > 10 µM | RXF 393 > 10 µM | M14 > 10 µM | SF-295 > 10 µM | SK-OV-3 > 10 µM | EKVX > 10 µM | SK-MEL-28 > 10 µM
